Marks after values point to notes of the source that are not given here.
How the values were obtained:
[1] = test system: Aβ(1-42) microinjection rat model; assay: Aβ(1-42) microinjection rat model, IH/ICV peptide, novel object recognition; format: in vivo, Sprague Dawley rats; details: 21 days after Aβ injection, p<0.01 versus vehicle
Description: Aβ(1-42) (Sigma-Aldrich, USA), was dissolved in filtered PBS at the concentration of 6 μg/μl, and the solution kept at 37° C. for 2 days before use. One microliter of the solution was injected by means of a microsyringe into the right hippocampus under sodium pentobarbital (55 mg/kg i.p.) anesthesia at the stereotaxic coordinates: AP=−3.6, ML=2.0, from Bregma and DV=3.0 from the skull. Control rats were injected with 1 μl of PBS. In the IH/ICV study, 1 μl of the peptide or PBS was also injected into the right hippocampus at the same stereotaxic coordinates.
For ICV injection, a microinjection cannula was planted into the lateral cerebral ventricle according to the following stereotaxic coordinates: AP=−1, ML=1.6, DV=3.8. […]
The training apparatus was a black Plexiglas box (50×50×40 cm) placed in a sound-attenuating cabinet which was located in a brightly lit and isolated room. […] During the training trial, the rat was placed in the box and allowed to explore two identical objects for 10 min and the total time spent exploring both objects was recorded. […] The rat was placed in the box for 3 min and the time spent exploring each object and the total time spent exploring both objects were recorded. The discrimination index used to assess memory was calculated as the difference in time exploring the novel and familiar object, expressed as the ratio of the total time spent exploring both objects. […]

MPTP-treated mice = assay: MPTP mouse Parkinson's model, striatal dopamine and metabolites by HPLC; format: in vivo, C57BL mice; details: for DA / DOPAC / HVA: striatal level, peptide 1 mg/kg intranasal, divided by total protein and normalized to vehicle treated mice
Description: C57BL mice (all male, age 8-12 weeks, obtained from Harlan Laboratories Israel) were administered with 18 mg/kg MPTP (Sigma-Aldrich) at a dosage volume of 100 μl/mouse by intraperitoneal (IP) injection twice daily, 3 hrs apart on days 1 and 2. On study day 0 and for 8 consecutive days, mice were administered intranasally with PBS (vehicle) or one of the peptides at 1 mg/kg in 12 μl/mouse. All peptides used in in vivo studies were synthesized by LifeTein and were modified with N terminal acetylation and C terminal amidation. For intranasal instillation, each mouse was mildly anesthetized (2.5% Isoflurane) then restrained and held with the neck parallel to the table while a total volume of 12 μl was administered into the nostril. Six (6) μl was administered to the left nostril as two 3 μl drops, followed by a 15 sec hold, and 6 μl was administered to the right nostril as two 3 μl drops, followed by a 15 seconds hold. On day 8 the animals were euthanized by cervical dislocation. Immediately after euthanasia, the brains were removed and the striata dissected (left and right striatum were pooled), weighed and frozen in dry ice. The striata samples were homogenized in a solution containing 0.1 M perchloric acid and 10 ng/ml 3,4 dihydroxybenzylamine (DHBA) by 5 seconds sonication at 80 W. The supernatants of each tissue extract were injected directly to HPLC pump (Jasco PU-2080Plus) onto a reverse phase column (GL-Science, Inertsil ODS-2 5 um 4.6×150 mm at room temperature) coupled to an electrochemical detector Coulochem II ESA with a conditioning cell model 5021 and analytical cell model 5011. The working potential was set to 0.35V on the conditioning cell and 0.1V and −0.35V on the analytical cell. The mobile phase was 0.05M monobasic sodium phosphate, with 80 mg/L EDTA, 125 mg/L heptane sulfonic acid, 55 ml of methanol and 50 ml of acetonitrile pH=2.7. The flow rate was 1.5 ml/min. The dopamine, DOPAC and HVA values were normalized to the lysate protein concentration (BCA kit, Pierce).
In this model, repeated itraperitoneal injections of MPTP (18 mg/kg at 3-h intervals on two consecutive days) result in dopaminergic neuronal death in the substantia nigra and dopamine depletion of the striatum. The peptides (or vehicle) were applied twice daily by intranasal instillation at 1 mg/kg starting 1 day prior to exposure to MPTP and continued until the end of the study. 7 days after the injection of MPTP mice were sacrificed and striatal levels of dopamine (DA), […] (DOPAC) and homovanillic acid (HVA) were evaluated by HPLC.
Specifically Table 2 illustrates the effect of human V6 and V 10-derived peptides (1 mg/kg, intranasal administration) on the striatal level of dopamine and metabolites in MPTP-treated mice. Mice were treated according to the protocol described in the Materials and Methods. Striatal levels of DA, DOPAC and HVA were determined by HPLC, divided by the total protein content value and normalized to the levels obtained in vehicle treated mice. Groups 1 and 3 treated with 1:1 mix of normal designated and retro-inverso analog (D amino acids at reversed sequence). Group 6 was treated with 1:1 mix of 10B2.5—6 and 10B2.5—9 peptides.

[2] = test system: N2A mouse neuroblastoma cells; assay: Protection of N2A cells from 6-OHDA (viability, alamar blue); format: cell-based; details: 30 or 40 μM 6-OHDA 22 hrs, peptide 10 fM and 1 μM
Description: All peptides were synthesized by LifeTein (South Pleinfield, N.J., USA) at >95% purity. N2A mouse neuroblastoma and SK-N-SH human neuroblastoma (ATCC) were maintained in Dulbecco's modified Eagle's medium supplemented with 10% fetal calf serum, L-Glut and 1% Penicillin-Streptomycin (Beit Haemek, Israel). Cells were maintained in an incubator at 37° C. with 5% CO2. SK-N-SH cells were treated with 3 μM RA (Sigma-Aldrich) for 5 days prior to each experiment to allow the cells to differentiate towards neuronal cells. […] The intensity of the water soluble dye is proportional to the number of metabolic active cells. […] The viability assay was followed by caspase 3 assay (EnzChek Caspase3 Assay kit, Invitrogen, Carlsbad, Calif., USA) according to the manufacture's instructions
All methods are the same as in Example 1 above. Peptides and 6-hydroxydopamine were purchased from Sigma-Aldrich (St. Lewis, USA).
These peptides were screened for their protective effect on 6-hydroxydopamine (6-OHDA) treated N2A cells at 1 pM concentration. 6-OHDA is a dopamine analogue that is commonly used in model systems to mimic Parkinson's disease in vitro and in vivo, 6-OHDA induces apoptosis through release of reactive oxygen species (ROS) and by a possible direct effect on the mitochondrial respiratory chain. […] The protective effect of some of the peptides was tested in a wide dose range. […] The peptide panel was also tested for their effect on Aβ (25-35) induced toxicity in SK-N-SH human neuroblastoma cells at pM concentration. The profile of peptides effective against the Aβ stress was strikingly different than the 6-OHDA-effective peptides (FIGS. 7A-B).
The peptides shown on Table 3 were tested for their effect in protecting N2A from 6-OHDA (FIG. 8). […] Such modifications include C-terminus truncation (26-1, 26-2 and 26-3), replacement of the N-terminal glutamic acid residue with glutamine and histidine at position 7 with alanine (26-8 and 26-9, respectively).

[3] = Pharmacokinetics after subcutaneous administration in rats (plasma, LC-MS/MS); format: in vivo, Sprague Dawley rats; details: subcutaneous 1 mg/kg; for Cmax: male, Sprague-Dawley, sc, rat plasma, read-out: apparent Cmax
Description: The pharmacokinetics of the peptides was evaluated following SC peptide administration in male Sprague Dawley rats. Peptide solution was prepared using phosphate buffer saline (pH 7.4) as vehicle and was administered through subcutaneously at the dose of 1 mg/kg with dosing volume of 2 mL/kg.
Blood samples were collected at 0 (pre-dose) and 0.17, 0.5, 1, 2, 4, 8 and 24 hours following administration. At each time point, approximately 0.25 mL of blood was withdrawn through jugular vein of the cannulated rats and transferred to a pre-labeled microfuge tube containing 200 mM K2EDTA (20 μL per mL of blood). Following sampling equal volume of heparinized saline was flushed in to catheter. Blood samples were centrifuged at 5000 g for 5 minutes at 4±2° C. All the plasma samples were stored below −70° C. until analysis. A fit-for-purpose LC-MS/MS method was used for the quantification of the peptides in plasma samples. The lower limit of quantification (LLOQ) was 22.34 ng/mL.

[4] = test system: Met tyrosine kinase receptor; details: literature reference [24]; cited from earlier work

Compound | levels of at least one of the 2 DA metabolites, DOPAC and HVA (MPTP-treated mice; 1 mg/kg intranasal) | DA (MPTP-treated mice) | DOPAC (MPTP-treated mice) | HVA (MPTP-treated mice) | activity in protecting N2A from 6-OHDA [2] | further results
FGVTAVTV (Human V10B1_8 peptide (also referred to as P34)) | increased significantly | 46.6 * | 75.9 ** | 83.3 ** | – | discrimination index, novel object recognition ([1]; 10 ng/rat IH/ICV): increased significantly; discrimination index, novel object recognition ([1]; 100 ng/rat IH/ICV): increased significantly; effect on striatal DA level compared to the vehicle control (MPTP-treated mice; 1 mg/kg intranasal): significantly positive effect
EGYTSHY (Human 26-1 peptide) | – | – | – | – | maintaining at least partial activity | –
CC(=O)N1CCC[C@@H]1C(=O)N[C@H](Cc1ccc(O)cc1)C(=O)N[C@H](Cc1c[nH]cn1)C(=O)N[C@H](CO)C(=O)N[C@@H](C(=O)N[C@H](Cc1ccc(O)cc1)C(=O)NCC(=O)N[C@H](CCC(=O)O)C(N)=O)[C@H](C)O (relative stereo) [26-RI, *P*Y*H*S*T*Y*G*E] | – | – | – | – | – | Cmax [3]: 1230 ng/mL; improvement of Cmax compared to P26 ([3]; rat): 10 fold
EGYTS (Human 26-3 peptide) | – | – | – | – | maintaining at least partial activity | –
NRWHE (A pentapeptide derived from the human V6) | – | – | – | – | – | inhibiting hepatocyte growth factor (HGF) signal transduction through Met tyrosine kinase receptor [4]: capable of inhibiting
TTLLEG (Human V10A1_N6 peptide) | – | 17.7 | 24.3 | −0.7 | – | –
EGYTSH (Human 26-2 peptide) | – | – | – | – | maintaining at least partial activity | –
EGYTSAYP (Human 26-9 peptide) | – | – | – | – | maintaining at least partial activity | –
NVNRSLSGD (Human V10B2.5_9 peptide) | increased significantly | – | – | – | – | –
EDSH (Human V6B1_C4 peptide) [hV6B1_C4] | – | 20.7 | 41.7 | 16.6 | – | –
hV10A2: human CD44V10-derived peptide, SEQ ID NO: 12; sequence not printed (TKESRTFIPVTSAKT; Human V10A2 peptide) | increased significantly | 24.7 | 54.8 * | 73.4 ** | – | –
NVNRSL (Human V10B2.5_6 peptide) | increased significantly | – | – | – | – | –
QGYTSHYP (Human 26-8 peptide) | – | – | – | – | maintaining at least partial activity | –
PVTSAKTGSFG [V10A/B_S] | – | 26.6 | 27.2 | 13.7 | – | –
hV10B3: human CD44V10-derived peptide, SEQ ID NO: 15; sequence not printed (SLSGDQDTFHPSG; Human V10B3 peptide) | increased significantly | 18.1 | 22.5 | 44.2 * | – | –
Ac-EGYTSHYP-NH2 (N-terminus and C-terminus assumed) [V10A1_N+4, EGYTSHYP] | – | – | – | – | – | Cmax [3]: 130 ng/mL
